# Species: Rattus norvegicus
# Type: toxicity, organism-based, Sprague-Dawley
# Conditions: in vivo, po, route oral GAVAGE, […]; for ABSOLUTE EOSINOPHIL / ABSOLUTE LYMPHOCYTE / ABSOLUTE MONOCYTE / ABSOLUTE SEGMENTED NEUTROPHIL / BASOPHIL / EOSINOPHIL / ERYTHROCYTE COUNT / HEMATOCRIT / HEMOGLOBIN / LEUKOCYTE COUNT / LYMPHOCYTE / MEAN CORPUSCULAR HEMOGLOBIN / MEAN CORPUSCULAR HEMOGLOBIN CONCENTRATION / MEAN CORPUSCULAR VOLUME / MONOCYTE / NEUTROPHIL / NUCLEATED RED BLOOD CELLS / PLATELET COUNT: tissue Blood; for ALANINE AMINOTRANSFERASE / ALBUMIN / ALKALINE PHOSPHATASE / ASPARTATE AMINOTRANSFERASE / BLOOD UREA NITROGEN / CARBON DIOXIDE / CHLORIDE / CHOLESTEROL / CREATINE PHOSPHOKINASE / CREATININE / GLUCOSE / LACTATE DEHYDROGENASE / LIPASE / PHOSPHORUS / POTASSIUM / SODIUM / TOTAL BILIRUBIN / TOTAL PROTEIN / URIC ACID: tissue Plasma
# [1] = 400 mg/kg, 24 h, dose level Low, time 1 day
# [2] = 1175 mg/kg, 6 h, dose level High, time 0.25 day
# [3] = 1175 mg/kg, 24 h, dose level High, time 1 day
# Description: DrugMatrix - Regimen: Single
compound,measurement,setting,value
ClC(Cl)(Cl)Cl [CARBON TETRACHLORIDE],ABSOLUTE EOSINOPHIL,[1],0 CELLS/uL
same,ABSOLUTE LYMPHOCYTE,[1],6780.67 CELLS/uL
same,ABSOLUTE MONOCYTE,[1],96.83 CELLS/uL
same,ABSOLUTE SEGMENTED NEUTROPHIL,[1],789.17 CELLS/uL
same,BASOPHIL,[1],0%
same,EOSINOPHIL,[1],0%
same,ERYTHROCYTE COUNT,[1],5.7 x10E6/uL
same,HEMATOCRIT,[1],35.63%
same,HEMOGLOBIN,[1],14.05 G/DL
same,LEUKOCYTE COUNT,[1],7.67 x10E3/uL
same,LYMPHOCYTE,[1],88%
same,MEAN CORPUSCULAR HEMOGLOBIN,[1],24.7 pg
same,MEAN CORPUSCULAR HEMOGLOBIN CONCENTRATION,[1],39.43 G/DL
same,MEAN CORPUSCULAR VOLUME,[1],62.67 fL
same,MONOCYTE,[1],1.17%
same,NEUTROPHIL,[1],10.83%
same,NUCLEATED RED BLOOD CELLS,[1],0 /100WBC
same,PLATELET COUNT,[1],966 x10E3/uL
same,ALANINE AMINOTRANSFERASE,[1],129.17 u/L
same,ALBUMIN,[1],4.17 G/DL
same,ALKALINE PHOSPHATASE,[1],338.17 u/L
same,ASPARTATE AMINOTRANSFERASE,[1],420.5 u/L
same,BLOOD UREA NITROGEN,[1],16.33 mg/dL
same,CARBON DIOXIDE,[1],34.33 mmol/L
same,CHLORIDE,[1],98.5 MEQ/L
same,CHOLESTEROL,[1],58 mg/dL
same,CREATINE PHOSPHOKINASE,[1],252 u/L
same,CREATININE,[1],0.29 mg/dL
same,GLUCOSE,[1],127.33 mg/dL
same,LACTATE DEHYDROGENASE,[1],240.17 u/L
same,LIPASE,[1],9.83 u/L
same,PHOSPHORUS,[1],9.37 mg/dL
same,POTASSIUM,[1],5.7 MEQ/L
same,SODIUM,[1],144.08 MEQ/L
same,TOTAL BILIRUBIN,[1],0.22 mg/dL
same,TOTAL PROTEIN,[1],6.3 G/DL
same,URIC ACID,[1],0.53 mg/dL
same,ABSOLUTE EOSINOPHIL,[2],83.17 CELLS/uL
same,ABSOLUTE LYMPHOCYTE,[2],9204 CELLS/uL
same,ABSOLUTE MONOCYTE,[2],323.67 CELLS/uL
same,ABSOLUTE SEGMENTED NEUTROPHIL,[2],4922.5 CELLS/uL
same,BASOPHIL,[2],0%
same,EOSINOPHIL,[2],0.5%
same,ERYTHROCYTE COUNT,[2],5.84 x10E6/uL
same,HEMATOCRIT,[2],39.2%
same,HEMOGLOBIN,[2],14.45 G/DL
same,LEUKOCYTE COUNT,[2],14.53 x10E3/uL
same,LYMPHOCYTE,[2],63.5%
same,MEAN CORPUSCULAR HEMOGLOBIN,[2],24.75 pg
same,MEAN CORPUSCULAR HEMOGLOBIN CONCENTRATION,[2],36.87 G/DL
same,MEAN CORPUSCULAR VOLUME,[2],67.08 fL
same,MONOCYTE,[2],2%
same,NEUTROPHIL,[2],34%
same,NUCLEATED RED BLOOD CELLS,[2],0.17 /100WBC
same,PLATELET COUNT,[2],1289.67 x10E3/uL
same,ALANINE AMINOTRANSFERASE,[2],157 u/L
same,ALBUMIN,[2],4.5 G/DL
same,ALKALINE PHOSPHATASE,[2],379.83 u/L
same,ASPARTATE AMINOTRANSFERASE,[2],369 u/L
same,BLOOD UREA NITROGEN,[2],14.83 mg/dL
same,CARBON DIOXIDE,[2],21 mmol/L
same,CHLORIDE,[2],97.83 MEQ/L
same,CHOLESTEROL,[2],59.17 mg/dL
same,CREATINE PHOSPHOKINASE,[2],433.5 u/L
same,CREATININE,[2],0.14 mg/dL
same,GLUCOSE,[2],128.33 mg/dL
same,LACTATE DEHYDROGENASE,[2],1251.5 u/L
same,LIPASE,[2],9.83 u/L
same,PHOSPHORUS,[2],13.47 mg/dL
same,POTASSIUM,[2],5.85 MEQ/L
same,SODIUM,[2],140.9 MEQ/L
same,TOTAL BILIRUBIN,[2],0.32 mg/dL
same,TOTAL PROTEIN,[2],5.88 G/DL
same,URIC ACID,[2],2.1 mg/dL
same,ABSOLUTE EOSINOPHIL,[3],28.67 CELLS/uL
same,ABSOLUTE LYMPHOCYTE,[3],8687.33 CELLS/uL
same,ABSOLUTE MONOCYTE,[3],78.33 CELLS/uL
same,ABSOLUTE SEGMENTED NEUTROPHIL,[3],1872.33 CELLS/uL
same,BASOPHIL,[3],0%
same,EOSINOPHIL,[3],0.33%
same,ERYTHROCYTE COUNT,[3],5.91 x10E6/uL
same,HEMATOCRIT,[3],37.1%
same,HEMOGLOBIN,[3],14.7 G/DL
same,LEUKOCYTE COUNT,[3],10.67 x10E3/uL
same,LYMPHOCYTE,[3],81%
same,MEAN CORPUSCULAR HEMOGLOBIN,[3],24.93 pg
same,MEAN CORPUSCULAR HEMOGLOBIN CONCENTRATION,[3],39.62 G/DL
same,MEAN CORPUSCULAR VOLUME,[3],62.85 fL
same,MONOCYTE,[3],0.83%
same,NEUTROPHIL,[3],17.83%
same,NUCLEATED RED BLOOD CELLS,[3],0 /100WBC
same,PLATELET COUNT,[3],912.17 x10E3/uL
same,ALANINE AMINOTRANSFERASE,[3],544.67 u/L
same,ALBUMIN,[3],4.05 G/DL
same,ALKALINE PHOSPHATASE,[3],371.33 u/L
same,ASPARTATE AMINOTRANSFERASE,[3],3091.33 u/L
same,BLOOD UREA NITROGEN,[3],15.5 mg/dL
same,CARBON DIOXIDE,[3],33.83 mmol/L
same,CHLORIDE,[3],98.33 MEQ/L
same,CHOLESTEROL,[3],55 mg/dL
same,CREATINE PHOSPHOKINASE,[3],312.83 u/L
same,CREATININE,[3],0.32 mg/dL
same,GLUCOSE,[3],129.83 mg/dL
same,LACTATE DEHYDROGENASE,[3],4392.83 u/L
same,LIPASE,[3],10 u/L
same,PHOSPHORUS,[3],9.72 mg/dL
same,POTASSIUM,[3],5.12 MEQ/L
same,SODIUM,[3],144.23 MEQ/L
same,TOTAL BILIRUBIN,[3],0.27 mg/dL
same,TOTAL PROTEIN,[3],6.05 G/DL
same,URIC ACID,[3],0.52 mg/dL
